Results as given in PMC5947877 (Phytomedicine : international journal of phytotherapy and …, 2017).
“Also recorded” adds a separate entry of the source.

Assays:
[1] = target: T1, recombinant human MAO-B (Homo sapiens, UniProt P27338); experiment: Fluorometric kynuramine deamination assay, MAO-B inhibition; type: biochemical
T1 sequence (P27338 1-520): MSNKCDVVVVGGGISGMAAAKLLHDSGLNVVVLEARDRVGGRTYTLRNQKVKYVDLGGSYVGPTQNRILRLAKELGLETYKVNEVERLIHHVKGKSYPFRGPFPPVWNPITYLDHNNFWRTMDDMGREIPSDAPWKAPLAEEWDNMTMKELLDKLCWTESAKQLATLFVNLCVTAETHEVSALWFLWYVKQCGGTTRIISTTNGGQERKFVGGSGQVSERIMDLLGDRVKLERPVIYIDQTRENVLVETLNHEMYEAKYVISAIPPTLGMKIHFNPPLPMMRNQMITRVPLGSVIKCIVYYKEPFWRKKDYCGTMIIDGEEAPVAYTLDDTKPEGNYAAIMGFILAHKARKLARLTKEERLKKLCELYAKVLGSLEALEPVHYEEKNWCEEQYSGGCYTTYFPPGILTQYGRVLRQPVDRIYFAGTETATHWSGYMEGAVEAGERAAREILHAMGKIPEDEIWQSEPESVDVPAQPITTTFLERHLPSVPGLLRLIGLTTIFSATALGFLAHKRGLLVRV

[2] = target: T2, recombinant human MAO-A (Homo sapiens, UniProt P21397); experiment: Enzyme kinetics and mechanism of inhibition with MAO-A; type: biochemical; conditions: for Type of Inhibition, Monoamine oxidase-A: Lineweaver-Burk analysis, reversibility from dialysis
T2 sequence (P21397 1-527): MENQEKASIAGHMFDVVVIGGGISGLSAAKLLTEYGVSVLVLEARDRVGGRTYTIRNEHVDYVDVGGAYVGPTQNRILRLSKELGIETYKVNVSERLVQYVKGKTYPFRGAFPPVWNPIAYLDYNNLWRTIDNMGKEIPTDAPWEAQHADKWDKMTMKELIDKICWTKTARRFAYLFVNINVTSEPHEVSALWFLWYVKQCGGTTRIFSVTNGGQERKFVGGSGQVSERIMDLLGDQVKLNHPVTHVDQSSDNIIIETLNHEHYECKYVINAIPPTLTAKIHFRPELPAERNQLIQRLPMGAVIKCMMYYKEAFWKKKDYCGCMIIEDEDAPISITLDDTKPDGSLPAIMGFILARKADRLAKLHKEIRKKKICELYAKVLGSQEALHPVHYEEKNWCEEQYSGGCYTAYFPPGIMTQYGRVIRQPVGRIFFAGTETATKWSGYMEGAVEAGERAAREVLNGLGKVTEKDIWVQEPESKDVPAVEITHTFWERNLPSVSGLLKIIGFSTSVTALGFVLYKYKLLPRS

[3] = target: T2, recombinant human MAO-A; conditions: dialysis 14-16 h at 4 °C
[4] = target: T2, recombinant human MAO-A; experiment: Fluorometric kynuramine deamination assay, MAO-A inhibition; type: biochemical; conditions: ratio of IC50 MAO-B / MAO-A

Row | Type of Inhibition, Monoamine oxidase-A ([2]; listed as myricetin) | Structure (SMILES) | IC50 [1] | Ki [2] | Type of Inhibition, Monoamine oxidase-A [2] | nature of binding to MAO-A (recovery of activity after dialysis) [3] | preferential MAO-A inhibition over MAO-B (fold) [4] | Type of Inhibition, Monoamine oxidase-A ([2]; listed as quercetin)
1 | mixed-type | O=c1c(O)c(-c2cc(O)c(O)c(O)c2)oc2cc(O)cc(O)c12 [Myricetin, myricetin] | 59.3 ± 1.78 µM | 2.24 ± 0.25 µM | Mixed/Reversible | reversible binding; also recorded: reversible inhibition |  | 
2 |  | O=c1c(O)c(-c2ccc(O)c(O)c2)oc2cc(O)cc(O)c12 [Quercetin, quercetin] | 28.4 ± 5.41 µM | 0.29 ± 0.03 µM | Competitive/Reversible | reversible binding; also recorded: reversible inhibition | 18 fold | competitive
